Data on 8 compounds can be found in paper PMC9416253, “Automated Radiosynthesis, Preliminary In Vitro/In Vivo Characterization of OncoFAP-Based Radiopharmaceuticals for Cancer Imaging and Therapy” (Pharmaceuticals, 2022).

Where two headings read alike, the source gives them in different places.

Series [1] can be described thus: Lipophilicity by shake-flask method (n-octanol/saline or PBS). Particulars: room temperature; for LogD7.4: n-octanol/PBS; for LogP: n-octanol/saline solution. It is filed as physicochemical. On the procedure: Lipophilicity was determined by partitioning between n-octanol and saline solution (LogP) or PBS (LogD7.4) at room temperature using the conventional shake-flask method. An aliquot of the formulated solution containing ~500 kBq of radiopharmaceuticals was added to a tube containing 6 mL of n-octanol/saline solution or n-octanol/PBS (1:1 v/v, LogP or LogD7.4, respectively). The tubes were shaken for 20 min, followed by centrifugation (5000× g for 5 min) and separation of the phases. Aliquots of 1 mL of the organic and the aqueous phases were taken, and the activity was measured using an automated gamma counter. The LogP or LogD7.4 were calculated as the decadic logarithm of [activity (cpm/mL) in n-octanol]/[(activity (cpm/mL) in saline solution or PBS].

Another series concerns the target T1, recombinant hFAP (Homo sapiens, UniProt Q12884).
T1 sequence (Q12884 1-760): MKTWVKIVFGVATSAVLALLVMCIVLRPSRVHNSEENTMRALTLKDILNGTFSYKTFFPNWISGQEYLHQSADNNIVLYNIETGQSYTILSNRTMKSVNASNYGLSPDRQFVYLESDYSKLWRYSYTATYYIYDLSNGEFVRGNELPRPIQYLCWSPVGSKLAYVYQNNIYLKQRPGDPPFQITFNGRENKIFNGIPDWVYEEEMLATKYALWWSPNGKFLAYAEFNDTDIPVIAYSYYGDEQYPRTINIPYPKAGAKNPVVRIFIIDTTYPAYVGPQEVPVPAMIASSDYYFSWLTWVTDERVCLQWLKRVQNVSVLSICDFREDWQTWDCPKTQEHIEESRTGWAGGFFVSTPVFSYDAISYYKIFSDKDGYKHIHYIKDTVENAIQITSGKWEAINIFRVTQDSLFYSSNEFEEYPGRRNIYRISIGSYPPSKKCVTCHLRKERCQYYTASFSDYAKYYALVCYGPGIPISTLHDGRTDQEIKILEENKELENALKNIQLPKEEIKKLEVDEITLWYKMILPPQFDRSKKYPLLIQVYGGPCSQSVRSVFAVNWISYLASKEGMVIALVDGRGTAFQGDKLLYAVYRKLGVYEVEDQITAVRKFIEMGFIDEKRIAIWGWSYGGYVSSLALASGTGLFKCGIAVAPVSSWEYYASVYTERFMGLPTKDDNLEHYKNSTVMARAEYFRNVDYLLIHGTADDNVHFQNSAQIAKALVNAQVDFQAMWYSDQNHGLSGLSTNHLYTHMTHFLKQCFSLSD
Nature of the series: Co-elution experiment with recombinant hFAP on PD-10 size exclusion columns. Conditions: 500 kBq radioligand, hFAP 2 μM 100 μL, PD-10 column. It is filed as binding. How it is done:
To assess the binding properties of radiolabeled OncoFAP-derivatives preparations to hFAP, [^68Ga]/[^18F]AlF/[^177Lu]-OncoFAP derivatives (500 kBq) were incubated with hFAP (2 μM, 100 μL) and then loaded on PD-10 columns, pre-equilibrated with running buffer (50 mM Tris, 100 mM NaCl, and 1 mM ethylenediaminetetraacetic acid [EDTA], pH = 7.4) and eluted with running buffer. Fractions of the flow through (500 μL) were collected, and the radioactivity intensity was measured immediately on a gamma counter (λ = 511 KeV for gallium-68 and fluorine-18 and λ = 208 KeV for lutetium-177).

Series [2] relates to FAP-expressing tumor models. Details: method as in PMID 34957527. Conditions: cited from earlier work.
In a further series the target is hCAIX (Homo sapiens, UniProt Q16790). Nature of the series: Co-elution experiment with hCAIX (non-target protein) on PD-10 columns. Particulars: PD-10 column. Format: binding. How it is done:
NODAGA-OncoFAP labeling with 177Lu and characterization
Figure S1. (A) Radiolabeling reaction scheme of OncoFAP-NODAGA with 177Lu in acetate buffer (pH=4) at 95°C for 15 min. (B) Coelution experiment of [177Lu]Lu-NODAGA-OncoFAP-with hFAP and hCAIX on PD-10 size exclusion chromatography columns. (C) Radio-HPLC analysis performed after labeling reaction.
NODAGA-OncoFAP can be efficiently labeled with 177Lu by heating at 95°C in acetate buffer (pH=4) for 15 min. [Figure S1A] […]
been observed. [Figure S1C] […]

The next series addresses FAP. Details: method as in PMID 33850024. Particulars: read-out: dissociation constant; cited from earlier work.
The next series has as its system SK-RC-52.hFAP cells. Description: Cell binding assay on FAP-positive SK-RC-52.hFAP cells. Particulars: 0.1 MBq, 37 °C, 1.5 × 10^5 cells each tube. Format: cell-based. How it is done:
Cell binding assays were performed in triplicate on SK-RC-52.hFAP and SK-R-RC-52.wt cells (density of 1.5 × 10^5 cells each tube), growth in RPMI-1640 medium (Gibco) containing 10% Fetal Bovine Serum (Gibco) and 1% Antibiotic-Antimycotic (Gibco) at 37 °C in 5% carbon dioxide (CO2). After adding [^68Ga]Ga-DOTAGA-OncoFAP, [^177Lu]Lu-DOTAGA-OncoFAP or [^18F]AlF-NOTA-OncoFAP (10 µL, 0.1 MBq) to the culture medium, the cells were incubated at 37 °C for 10, 30, 60 min for ^68Ga-derivatives and 10, 30, 60, 120, 240 min for ^18F-derivatives or 10, 30, 60, 120, 240, 360 min and 24 and 48 h for the ^177Lu-derivative. As a control, nonspecific binding determination was carried out by incubating with the OncoFAP derivatives complex with the non-radioactive isotopes reference standard (100 µM) with the same cell lines for 5 min before incubation with the radiolabeled compounds. After incubation, the cell pellets were washed twice with 1 mL of cold PBS (pH 7.4), centrifuged (400× g, 5 min) and the pellet measured by an automatic gamma counter (WIZARD2, PerkinElmer, Waltham, MA, USA).

In the next series the test system is HT-1080.hFAP tumors. Nature of the series: In vivo biodistribution in mice bearing subcutaneous HT-1080.hFAP tumors. How it is done: Tumor cells were grown to 80% confluence in Dulbecco’s Modified Eagle Medium (DMEM) supplemented with 10% Fetal Bovine Serum (Thermofisher, Waltham, MA, USA) and 1% antibiotic-antimycotic (Gibco) and detached with Trypsin-EDTA 0.05%. HT-1080.hFAP, cells (FAP positive cells) were resuspended in Hanks’ Balanced Salt Solution medium. Aliquots of 5 × 10^6 cells (100 μL of suspension) were injected subcutaneously in the right flanks of female athymic Balb/c AnNRj-Foxn1 mice (6 to 8 weeks of age, Janvier-labs, Le Genest-Saint-Isle, France). Female athymic Balb/c AnNRj-Foxn1 mice (6 to 8 weeks of age) were implanted in the right flank with HT-1080.hFAP tumors as described above. Tumors were allowed to grow to an average volume of 250 mm^3. Mice were randomized (n = 5 per group) and injected intravenously with radiolabeled preparations of [^18F]AlF-NOTA-OncoFAP (10 nmol/mice; 77 kBq; RCP:89%). Mice were euthanized 1 h after the injection by CO2 asphyxiation. Organs were extracted, weighted, and radioactivity was measured with a Packard Cobra Gamma Counter. Values are expressed as percent ID/g ± SD.

In another series the test system is FAP-positive tumor. Details: method as in PMID 35589404. Conditions: cited from earlier work.
Series [3] in a line: In vitro stability in saline solution (bulk solution), HPLC/iTLC. Format: physicochemical. How it is done:
The in vitro stability of the radiopharmaceuticals preparations in saline solution was evaluated on the bulk solution i.e., with the highest radioactive concentration. In addition, the in vitro stability of radiopharmaceutical preparations was tested by incubating 10 MBq of each radiolabeled compounds in 1 mL of human plasma at 37 °C. Small aliquots of bulk solution were analyzed by HPLC and iTLC and 10 µL of plasma solution were analyzed by iTLC at 30, 60, 90, 120, 150 and 180 min for [^68Ga]Ga-DOTAGA/NODAGA-OncoFAP derivatives, 50, 100, 150 and 200-min for [^18F]AlF-NOTA/NODAGA-OncoFAP or 1, 3, 6, 12, 24, and 2, 3, 4, 7 and 9 days for [^177Lu]Lu-DOTAGA-OncoFAP, as show in Figure 3.

Setting [4] is: 1-h time point, 500 nmol/kg i.v.

In series [1], `N#C[C@@H]1CC(F)(F)CN1C(=O)CNC(=O)c1ccnc2c(NC(=O)CCC(=O)NCCNC(=O)CCC(C(=O)O)N3CCN(CC(=O)[O-])CCN(CC(=O)[O-])CC3)cccc12.[18F][Al+2]` (stereo partly shown) [[^18F]AlF-NODAGA-OncoFAP] had a LogD7.4 of -2.88±0.16 and a LogP of -3.02± 015.

In [1], `N#C[C@@H]1CC(F)(F)CN1C(=O)CNC(=O)c1ccnc2c(NC(=O)CCC(=O)N3CCN(C(=O)CN4CCN(CC(=O)[O-])CCN(CC(=O)[O-])CC4)CC3)cccc12.[68Ga+3]` [[^68Ga]Ga-NOTA-OncoFAP] showed a LogD7.4 of -2.19± 0.11 and a lipophilicity (LogP) of -2.38± 0.11.

Regarding `N#C[C@@H]1CC(F)(F)CN1C(=O)CNC(=O)c1ccnc2c(NC(=O)CCC(=O)NCCNC(=O)CCC(C(=O)O)N3CCN(CC(=O)[O-])CCN(CC(=O)[O-])CCN(CC(=O)[O-])CC3)cccc12.[68Ga+3]` (stereo partly shown) [[^68Ga]Ga-DOTAGA-OncoFAP], the “complex formation with recombinant hFAP (co-elution)” value at recombinant hFAP is listed as “forms a stable complex”. Also, the tumor-to-blood ratio in series [2] (at 1 h p.i.) was 8.6 ± 5.1; in [2] (at 3 h p.i.), 38.1 ± 33.1. In series [1], this compound yielded a LogD7.4 of -2.39 ± 0.12. Besides, in [1], the LogP was -2.57± 0.15.

As to `N#C[C@@H]1CC(F)(F)CN1C(=O)CNC(=O)c1ccnc2c(NC(=O)CCC(=O)NCCNC(=O)CCC(C(=O)[O-])N3CCN(CC(=O)[O-])CCN(CC(=O)[O-])CC3)cccc12.[177Lu+3]` (stereo partly shown) [[177Lu]Lu-NODAGA-OncoFAP], the “complex formation with recombinant hFAP (co-elution)” value at recombinant hFAP is “strong affinity”. Also, the “interaction with hCAIX (co-elution)” value on hCAIX is on record as “no significant interaction”.

Regarding `N#C[C@@H]1CC(F)(F)CN1C(=O)CNC(=O)c1ccnc2c(NC(=O)CCC(=O)O)cccc12` [OncoFAP], at FAP, the Kd is 0.68 nM.

In series [1], `N#C[C@@H]1CC(F)(F)CN1C(=O)CNC(=O)c1ccnc2c(NC(=O)CCC(=O)N3CCN(C(=O)CN4CCN(CC(=O)[O-])CCN(CC(=O)[O-])CC4)CC3)cccc12.[18F][Al+2]` [[^18F]AlF-NOTA-OncoFAP] registered a LogD7.4 of -2.01± 0.25 and a LogP of -2.15± 0.18. Further, the absolute binding value in the series with SK-RC-52.hFAP cells worked out at 0.25%. In the series with HT-1080.hFAP tumors (setting [4]), the tumor-to-blood ratio is given as 6.5 and the tumor-to-kidney ratio came out at 4.3. The compound also came in with a tumor accumulation with HT-1080.hFAP tumors (1 h post intravenous injection, 500 nmol/kg, HT-1080.hFAP) of 6.6 % ID/g.

Regarding `N#C[C@@H]1CC(F)(F)CN1C(=O)CNC(=O)c1ccnc2c(NC(=O)CCC(=O)NCCNC(=O)CCC(C(=O)O)N3CCN(CC(=O)[O-])CCN(CC(=O)[O-])CCN(CC(=O)[O-])CC3)cccc12.[177Lu+3]` (stereo partly shown) [[^177Lu]Lu-DOTAGA-OncoFAP], in [1], the LogD7.4 is recorded as -1.85± 0.05 and the LogP was -2.01± 0.08. Also, the “uptake in the FAP-positive tumor” value with FAP-positive tumor (10 min after injection) is 32 % injected dose [ID]/g. The tumor uptake in the series on FAP-positive tumor (at 24 h p.i.) was ~ 4 % ID/g. Also, the “sustained uptake in the lesions” value with FAP-positive tumor (over the first 6 h time window) is reported as “higher than 20 % ID/g”. For the same compound, the radiolysis result in series [3] (every 24 h, without gentisic acid) is “about 10%”. Also, in series [3] (in words, without stabilizer), the “stability at high radioactive concentrations” value was “intrinsic instability”. Further, in series [3] (within 8 days, with addition of 20 mg of gentisic acid as radical scavenger), the radiolysis entry is given as “about 2%”.

In series [1], `N#C[C@@H]1CC(F)(F)CN1C(=O)CNC(=O)c1ccnc2c(NC(=O)CCC(=O)NCCNC(=O)CCC(C(=O)[O-])N3CCN(CC(=O)[O-])CCN(CC(=O)[O-])CC3)cccc12.[68Ga+3]` (stereo partly shown) [[^68Ga]Ga-NODAGA-OncoFAP] returned a LogD7.4 of -2.48± 0.09 and a LogP of -2.68± 0.14.
